Values of other authors as cited in patent US20120141611A1, “METHODS AND COMPOSITIONS USING ERGOTHIONEINE TO TREAT A VARIETY OF HEALTH RELATED FACTORS” (Oxis International Inc., priority 2010, published 2012).

Tests used:
[1] = tested on: intestinal polyps; conditions: mouse, in vivo; cited from earlier work
[2] = people taking vitamin C supplements, 1,032 subjects; cited from earlier work
[3] = 537 osteoarthritis patients, after 27 weeks; cited from earlier work
[4] = single elderly person, stable seven years later; cited from earlier work

Q: Which “Reduction of intestinal polyps” value [1] does the source give for `COc1cc(/C=C/C(=O)CC(=O)/C=C/c2ccc(O)c(OC)c2)ccc1O` [curcumin] here?
A: 75%

Q: Which “Reduced likelihood of developing osteoarthritis in the knee” value [2] does the source give for `O=C1O[C@H]([C@@H](O)CO)C(O)=C1O` [vitamin C] here?
A: 11%

Q: For hyaluronic acid, which Joint pain [3] is on record?
A: significantly reduce joint pain while resting and while walking

Q: With Cyanocobalamin [vitamin B12] as the molecule, how does the Dementia outcome [4] read?
A: their dementia disappeared
